Assay results: US10596172B2 (Celgene CAR LLC, priority 2008, dated 2020)
Read-outs that look alike come from different tables or passages of the source.

Tested on: B cell lymphoma cell lines
Assay: B cell lymphoma proliferation assay
Type: cell-based
[1] = DHL4 B cell lymphoma cell line, read-out: EC50 (μM) DHL4
[2] = Homo sapiens, DOHH-2, DOHH2 B cell lymphoma cell line, read-out: EC50 (μM) DOHH2
[3] = Homo sapiens, WSUDLCL2, WSU-DLCL2 B cell lymphoma cell line, read-out: EC50 (μM) WSU-DLCL2

SMILES | EC50 [1] [µM] | EC50 [2] [µM] | EC50 [3] [µM]
C=CC(=O)Nc1cccc(Nc2nc(Nc3cccc(OC)c3)ncc2OC)c1 [Compound I-158, N-(3-(5-methoxy-2-(3-methoxyphenylamino)pyrimidin-4-ylamino)phenyl)acrylamide] | 1 to 10 | 1 to 10 | 1 to 10
C=CC(=O)Nc1cccc(Nc2nc(Nc3ccc(OCc4ccccn4)c(Cl)c3)ncc2F)c1 [Compound I-86, N-(3-(2-(3-chloro-4-(pyridin-2-ylmethoxy)phenylamino)-5-fluoropyrimidin-4-ylamino)phenyl)acrylamide] |  | > 10 | 
C=CC(=O)N1CCOc2ccc(Nc3nc(Nc4ccc(N5CCOCC5)cc4)ncc3C(C)=O)cc21 [Compound I-169, 1-{6-[5-Acetyl-2-(4-morpholin-4-yl-phenylamino)-pyrimidin-4-ylamino]-2,3-dihydro-benzo[1,4]oxazin-4-yl}-propenone] |  | 1 to 10 | 
C=CC(=O)N1CCOc2ccc(Nc3nc(Nc4ccc(N5CCOCC5)nc4)ncc3C(C)=O)cc21 [Compound I-168, 1-{6-[5-Acetyl-2-(6-morpholin-4-yl-pyridin-3-ylamino)-pyrimidin-4-ylamino]-2,3-dihydro-benzo[1,4]oxazin-4-yl}-propenone] |  | 1 to 10 | 
C=CC(=O)Nc1cccc(Nc2nc(Nc3ccc4c(c3)N(C)CCO4)ncc2F)c1 [Compound I-126, N-(3-(2-(4-methyl-2,3-dihydrobenzo[1,4]oxazin-6-yl)amino-5-fluoropyrimidin-4-ylamino)phenyl)acrylamide] |  | < 0.1 | 
C=CC(=O)Nc1cccc(Nc2nc(Nc3ccc(OCCO)nc3)ncc2C(C)=O)c1 [Compound I-121, N-(3-{5-Acetyl-2-[6-(2-hydroxy-ethoxy)-pyridin-3-ylamino]-pyrimidin-4-ylamino}-phenyl)-acrylamide] |  | 1 to 10 | 
COCCOc1ccc(Nc2ncc(F)c(Nc3cccc(NC(=O)/C=C/CN4CC[C@H](O)C4)c3)n2)cc1 [Compound I-88, (S,E)-N-(3-(5-fluoro-2-(4-(2-methoxyethoxy)phenylamino)pyrimidin-4-ylamino)phenyl)-4-(3-hydroxypyrrolidin-1-yl)but-2-enamide] |  | 1 to 10 | 
C=CC(=O)Nc1cccc(Nc2nc(Nc3ccc(OCC4CCN(C)CC4)cc3)ncc2F)c1 [Compound I-90, N-(3-(5-fluoro-2-(4-((1-methylpiperidin-4-yl)methoxy)phenylamino)pyrimidin-4-ylamino)phenyl)acrylamide] |  | 0.1 to 1 | 
C=CC(=O)N1CCC[C@@H](Nc2nc(Nc3cccc(OCCN4CCOCC4)c3)ncc2F)C1 [Compound I-135, (R)-1-(3-(5-fluoro-2-(3-(2-morpholinoethoxy)phenylamino)pyrimidin-4-ylamino)piperidin-1-yl)prop-2-en-1-one] | > 10 | > 10 | 
C=CC(=O)Nc1cccc(Nc2nc(Nc3ccc(OC4CCC4)nc3)ncc2F)c1 [Compound I-79, N-(3-(2-(6-cyclobutoxypyridin-3-ylamino)-5-fluoropyrimidin-4-ylamino)phenyl)acrylamide] |  | 1 to 10 | 
C=CC(=O)Nc1cccc(Nc2nc(Nc3ccc(OCCCS(C)(=O)=O)nc3)ncc2F)c1 [Compound I-80, N-(3-(5-fluoro-2-(6-(3-(methylsulfonyl)propoxy)pyridin-3-ylamino)pyrimidin-4-ylamino)phenyl)acrylamide] |  | 0.1 to 1 | 
C=CC(=O)N1CCc2ccc(Nc3nc(Nc4ccc(OC)nc4)ncc3F)cc21 [Compound I-166, 1-(6-(5-fluoro-2-(6-methoxypyridin-3-ylamino)pyrimidin-4-ylamino)indolin-1-yl)prop-2-en-1-one] | 1 to 10 | 1 to 10 | 1 to 10
C=CC(=O)Nc1cccc(Nc2nc(Nc3ccc4c(cnn4C(=O)OC(C)(C)C)c3)ncc2F)c1 [Compound I-151] | 1 to 10 | 1 to 10 | 
C=CC(=O)N1CCC[C@@H](Nc2nc(Nc3cccc(Cl)c3)ncc2F)C1 [Compound I-147, (R)-1-(3-(2-(3-chlorophenylamino)-5-fluoropyrimidin-4-ylamino)piperidin-1-yl)prop-2-en-1-one] |  | 1 to 10 | 
C=CC(=O)Nc1cccc(Oc2nc(Nc3ccc(OC)nc3)ncc2F)c1 [Compound I-217] |  | > 10 | > 10
C=CC(=O)N1Cc2ccc(Nc3nc(Nc4ccc(OC)nc4)ncc3F)cc2C1 [Compound I-165, 1-(5-(5-fluoro-2-(6-methoxypyridin-3-ylamino)pyrimidin-4-ylamino)isoindolin-2-yl)prop-2-en-1-one] | 1 to 10 | 1 to 10 | 1 to 10
C=CC(=O)Nc1cccc(Nc2nc(Nc3ccc4c(c3)N(C(=O)C(F)(F)F)CCO4)ncc2F)c1 [Compound I-143, N-(3-(2-(4-trifluoroacetyl-2,3-dihydrobenzo[1,4]oxazin-6-yl)amino-5-fluoropyrimidin-4-ylamino)phenyl)acrylamide] | 1 to 10 | 1 to 10 | 1 to 10
C=CC(=O)N1CCOc2ccc(Nc3nc(Nc4ccc(N5CCCC5=O)cc4)ncc3C(C)=O)cc21 [Compound I-152, 1-{4-[5-Acetyl-4-(4-acryloyl-3,4-dihydro-2H-benzo[1,4]oxazin-6-ylamino)-pyrimidin-2-ylamino]-phenyl}-pyrrolidin-2-one] |  | 1 to 10 | 
C=CC(=O)Nc1cccc(Nc2nc(Nc3ccc(OC)nc3)ncc2C(N)=O)c1 [Compound I-209, 4-(3-acrylamidophenylamino)-2-(6-methoxypyridin-3-ylamino)pyrimidine-5-carboxamide] |  | > 10 | 1 to 10
C=CC(=O)Nc1cccc(Nc2nc(Nc3ccc(OC)nc3)ncc2C2CC2)c1 [Compound I-167, N-(3-(5-cyclopropyl-2-(6-methoxypyridin-3-ylamino)pyrimidin-4-ylamino)phenyl)acrylamide] |  | 1 to 10 | 
C=CC(=O)Nc1cccc(Nc2nc(Nc3ccc(OCCOC)nc3)ncc2F)c1 [Compound I-103, N-(3-(5-fluoro-2-(6-(2-methoxyethoxy)pyridine-3-ylamino)pyrimidin-4-ylamino)phenyl)acrylamide] |  |  | 1 to 10
C=CC(=O)Nc1cccc(Nc2nc(Nc3cccc(OC(C)(C)CO)c3)ncc2F)c1 [Compound I-91, N-(3-(5-fluoro-2-(3-(1-hydroxy-2-methylpropan-2-yloxy)phenylamino)pyrimidin-4-ylamino)phenyl)acrylamide] |  | 1 to 10 | 1 to 10
C=CC(=O)N1CCOc2ccc(Nc3nc(Nc4ccc(OCCO)nc4)ncc3C(C)=O)cc21 [Compound I-128, 1-(6-{5-Acetyl-2-[6-(2-hydroxy-ethoxy)-pyridin-3-ylamino]-pyrimidin-4-ylamino}-2,3-dihydro-benzo[1,4]oxazin-4-yl)-propenone] |  | 1 to 10 | 
C=CC(=O)Nc1cccc(Nc2nc(Nc3ccc(OC)nc3)ncc2C(C)=O)c1 [Compound I-189, N-{3-[5-Acetyl-2-(6-methoxy-pyridin-3-ylamino)-pyrimidin-4-ylamino]-phenyl}-acrylamide] | 1 to 10 | > 10 | > 10
C=CC(=O)Nc1cccc(Nc2nc(Nc3cccc(OC)c3)ncc2C(N)=O)c1 [Compound I-210, 4-(3-acrylamidophenylamino)-2-(3-methoxyphenylamino)pyrimidine-5-carboxamide] |  | 1 to 10 | 1 to 10
C=CC(=O)Nc1cccc(Nc2nc(Nc3ccc(N(C)CCOC)nc3)ncc2F)c1 [Compound I-77, N-(3-(5-fluoro-2-(6-((2-methoxyethyl)(methyl)amino)pyridin-3-ylamino)pyrimidin-4-ylamino)phenyl)acrylamide] |  | 0.1 to 1 | 
